According to patent US8044057B2, “Methods for suppressing an immune response or treating a proliferative disorder” (The United States of America as represented by the …, priority 2003, dated 2011):

Legend:
Type in all cases: cell-based, human
A549 cells [1] = assay: BrDU incorporation (in situ ELISA) in A549 cells; conditions: 24 hours, 0-200 μM LY303511 without or with rapamycin 200 ng/ml
A549 cells [2] = assay: Western blot of cell cycle inhibitors, cyclins and phospho-Rb in A549 cells
Protocol: FIGS. 3A-3B are bar graphs and digital images showing the effect of LY303511 on the levels of cell cycle inhibitors and cyclins. A549 cells (˜1×10^6 cells per 100-mm dish) were grown for 48 h before addition of 0.1% DMSO, 100 μM LY303511, or rapamycin, 200 ng/ml, for 0, 12, or 24 hours. At the indicated times, cells were homogenized and stored at −80° C. For Western blot analyses, samples (70 μg) of lysate proteins separated by SDS-PAGE were transferred to nitrocellulose membranes and reacted with the following antibodies: A. Phospho-S6K T389 (pS6K), p27 Kip1, p21 Cip1, phospho-Rb S807/S811, or B. Cyclin A, Cyclin B, Cyclin D, and Cyclin E. All blots are from one experiment. Data below (relative density) are means of densitometric values from duplicate dishes treated with inhibitors for 24 hours relative to DMSO control=1.0 in three experiments. *p<0.05 vs. DMSO control by Student's t-test.
In another experiment, A549 cells were grown to sub-confluence in serum-containing media, and incubated with a vehicle, 100 mcM LY303511, or rapamycin, 200 ng/ml for 0, 12, or 24 hours. Cells were lysed, and proteins separated by SDS-PAGE before transfer to nitrocellulose membranes. Membranes were incubated with antibodies against p27Kip1, p21 Cip1 orphospho-P70 S6 kinase T389.

PASM cells [3] = assay: BrDU incorporation (in situ ELISA) in PASM cells
Protocol: PASM cells (4,000 per well) were grown in 96-well plates for 24 hours before incubation for 24 hours in medium with (FIG. 4C) or without 10% FBS (FIG. 4D). Cells were then incubated in fresh medium containing 10% FBS, 10 μM BrDU, and 0-100 μM LY303511 without or with rapamycin, 200 or 400 ng/ml, for 24 hours BrDU incorporation was measured by in situ ELISA as per the manufacturer's instructions (BrDU detection kit, Roche). For each experiment, BrDU content of cells incubated with inhibitors was expressed relative to that in cells incubated with 0.1% DMSO control (% control). Mean control (=100%) absorbance for each experiment using cells from different donors was 0.22±0.06 and 0.24±0.06 for FIG. 4C and FIG. 4D, respectively (=100%). Data are means of BrDU values ±SEM from 3 experiments with assays in sextuplet. *p<0.05 vs. DMSO control, or †p<0.05 vs. 10 μM LY303511, by Student's t-test.
Measurement of cell proliferation:. Cell proliferation, or DNA synthesis, was estimated using an in situ 5-bromo-2-deoxy-uridine (BrDU) detection kit as per the manufacturer's instructions (Roche Diagnostics; Nutley, N.J.). […] Cells were fixed, and BrDU was detected using a peroxidase-conjugated anti-BrDU antibody. The measured absorbance data in cells treated with inhibitors were normalized to those treated with DMSO control (% control).

PASM cells [4] = assay: Propidium iodide flow cytometry cell cycle analysis in PASM cells; conditions: 24 hours
Protocol: FIGS. 5A-5B are bar graphs showing that LY303511 inhibits the cell cycle by causing combined G1 and G2/M arrest and that LY303511 inhibits CK2 activity. For the data shown in FIG. 5A, PASM cells were cultured in medium with FBS for 48 hours before the addition of 0-100 μM LY303511 without or with raparnycin, 400 ng/ml, for 24 hours. Cells were then harvested and incubated with propidium iodide for 2 hours before counting using a Becton-Dickson FACSCalibur. Data are the means (±SEM) of percentages of cells in G1, S, or G2/M phase of the cell cycle in three experiments with duplicate assays. *p<0.05 vs. DMSO control, or †p<0.05 vs. 10 μM LY303511, by Student's t—test. FIG. 5B is a bar graph showing that LY303511 or LY294002 inhibits CK2 in vitro. […] Data are the means of values for samples with inhibitors expressed as percentage of that for control, which was (mean±SEM) 0.2±0.03 pmol phosphate/100 ng protein/10 min. […]
In order to investigate the effect of LY303511 on the cell cycle, A549 cells or pulmonary artery smooth muscle cells were grown to sub-confluence in serum-containing media, and incubated with vehicle, 10, or 100 mcM LY303511, without or with Rapamycin (200 ng/ml), for 24 hours. […] The proportion of cells in G1, S, or G2/M phase of the cell cycle for each experimental condition was determined. […]

[5] = 100 mcM LY303511 or rapamycin 200 ng/ml, 12 and 24 hours

O=c1cc(N2CCNCC2)oc2c(-c3ccccc3)cccc12 [LY303511, 2-(4-piperazinyl)-8-phenyl-4H-1-benzopyran-4-one]
BrDu uptake (DNA synthesis, proliferation) (A549 cells [1]): concentration-dependent reduction | phosphorylation of Rb (S807/S811) (A549 cells [2]; 100 mcM LY303511): reduced the phosphorylation of Rb | levels of cyclin A and B (A549 cells [2]; 100 mcM LY303511 or rapamycin 200 ng/ml): decreased levels of cyclin A and B | p21 Cip1 level (A549 cells [2]; [5]): significant increase in p21 Cip1 | p27Kip1 level (A549 cells [2]; [5]): accumulation of p27Kip1 | proliferation (BrDu incorporation) (PASM cells [3]; PASM cells in serum-free medium for 24 h before addition of FBS (FIG. 4D), compared with serum pre-incubation): enhanced in the absence of serum | proliferation (BrDu incorporation) (PASM cells [3]; PASM cells incubated with serum before addition of inhibitors (FIG. 4C)): inhibited in concentration-dependent fashion | G1 phase cells (G1 arrest) (PASM cells [4]): negligible | proportion of cells in S phase (PASM cells [4]): reduced the proportion of cells in S phase
